Test results published in ChEMBL document CHEMBL5291721, “A preclinical secondary pharmacology resource illuminates target-adverse drug reaction associations of marketed drugs” (Nat Commun, 2023).

Key:
[1] = target: T1, Alpha-1A adrenergic receptor (Homo sapiens, UniProt P35348)
T1 sequence (P35348 whole entry): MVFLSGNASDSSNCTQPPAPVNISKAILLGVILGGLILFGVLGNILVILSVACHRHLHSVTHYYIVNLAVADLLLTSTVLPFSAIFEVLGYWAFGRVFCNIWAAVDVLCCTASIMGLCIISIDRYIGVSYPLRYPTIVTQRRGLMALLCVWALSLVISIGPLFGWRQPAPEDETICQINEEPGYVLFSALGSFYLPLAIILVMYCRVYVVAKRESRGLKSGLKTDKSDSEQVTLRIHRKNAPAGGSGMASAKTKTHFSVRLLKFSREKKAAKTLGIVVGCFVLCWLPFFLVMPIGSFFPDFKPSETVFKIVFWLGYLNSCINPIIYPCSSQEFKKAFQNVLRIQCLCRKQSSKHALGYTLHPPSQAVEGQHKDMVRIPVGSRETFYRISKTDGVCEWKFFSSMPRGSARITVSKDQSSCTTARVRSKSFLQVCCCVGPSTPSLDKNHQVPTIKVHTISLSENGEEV

[2] = target: T2, Alpha-2A adrenergic receptor (Homo sapiens, UniProt P08913); format: functional, cell-based
T2 sequence (P08913 whole entry): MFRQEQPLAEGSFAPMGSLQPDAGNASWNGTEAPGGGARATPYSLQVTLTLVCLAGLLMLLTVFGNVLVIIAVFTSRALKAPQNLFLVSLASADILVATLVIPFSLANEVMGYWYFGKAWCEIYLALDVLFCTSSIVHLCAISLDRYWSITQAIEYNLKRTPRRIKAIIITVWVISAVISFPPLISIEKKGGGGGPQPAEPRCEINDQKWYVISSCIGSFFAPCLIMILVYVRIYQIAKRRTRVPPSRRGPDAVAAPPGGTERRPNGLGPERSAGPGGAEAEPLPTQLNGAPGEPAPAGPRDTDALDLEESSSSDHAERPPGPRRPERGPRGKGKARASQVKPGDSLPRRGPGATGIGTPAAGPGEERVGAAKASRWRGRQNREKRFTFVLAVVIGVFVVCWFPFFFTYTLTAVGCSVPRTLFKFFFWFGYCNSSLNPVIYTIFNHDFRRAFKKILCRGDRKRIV

[3] = target: Beta-2 adrenergic receptor (Homo sapiens, UniProt P07550)
Beta-2 adrenergic receptor, sequence (P07550 whole entry): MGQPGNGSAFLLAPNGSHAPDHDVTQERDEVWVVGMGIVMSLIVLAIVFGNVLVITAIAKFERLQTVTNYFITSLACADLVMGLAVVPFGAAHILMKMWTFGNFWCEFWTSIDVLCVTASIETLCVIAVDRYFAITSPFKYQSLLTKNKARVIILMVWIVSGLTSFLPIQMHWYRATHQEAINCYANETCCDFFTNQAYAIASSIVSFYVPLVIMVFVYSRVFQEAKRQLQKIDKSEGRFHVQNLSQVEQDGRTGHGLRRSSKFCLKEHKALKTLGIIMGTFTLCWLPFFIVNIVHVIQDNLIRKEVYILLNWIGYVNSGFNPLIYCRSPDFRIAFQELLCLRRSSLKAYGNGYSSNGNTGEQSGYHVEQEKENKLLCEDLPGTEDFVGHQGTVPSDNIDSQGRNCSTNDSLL

[4] = target: T3, Gastrin/cholecystokinin type B receptor (Homo sapiens, UniProt P32239)
T3 sequence (P32239 whole entry): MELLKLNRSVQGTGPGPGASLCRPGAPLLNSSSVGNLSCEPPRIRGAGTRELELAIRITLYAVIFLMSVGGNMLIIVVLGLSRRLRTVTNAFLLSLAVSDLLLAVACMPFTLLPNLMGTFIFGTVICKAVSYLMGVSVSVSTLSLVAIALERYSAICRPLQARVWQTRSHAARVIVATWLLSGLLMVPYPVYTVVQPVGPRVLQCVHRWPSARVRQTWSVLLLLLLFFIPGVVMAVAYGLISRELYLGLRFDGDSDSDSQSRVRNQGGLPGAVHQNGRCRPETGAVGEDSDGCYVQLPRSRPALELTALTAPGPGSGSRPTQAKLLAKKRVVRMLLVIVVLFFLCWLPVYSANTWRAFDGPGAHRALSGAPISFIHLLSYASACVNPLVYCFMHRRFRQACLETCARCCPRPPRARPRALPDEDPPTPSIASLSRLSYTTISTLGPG

[5] = target: T4, Muscarinic acetylcholine receptor M2 (Homo sapiens, UniProt P08172); format: functional, cell-based
T4 sequence (P08172 whole entry): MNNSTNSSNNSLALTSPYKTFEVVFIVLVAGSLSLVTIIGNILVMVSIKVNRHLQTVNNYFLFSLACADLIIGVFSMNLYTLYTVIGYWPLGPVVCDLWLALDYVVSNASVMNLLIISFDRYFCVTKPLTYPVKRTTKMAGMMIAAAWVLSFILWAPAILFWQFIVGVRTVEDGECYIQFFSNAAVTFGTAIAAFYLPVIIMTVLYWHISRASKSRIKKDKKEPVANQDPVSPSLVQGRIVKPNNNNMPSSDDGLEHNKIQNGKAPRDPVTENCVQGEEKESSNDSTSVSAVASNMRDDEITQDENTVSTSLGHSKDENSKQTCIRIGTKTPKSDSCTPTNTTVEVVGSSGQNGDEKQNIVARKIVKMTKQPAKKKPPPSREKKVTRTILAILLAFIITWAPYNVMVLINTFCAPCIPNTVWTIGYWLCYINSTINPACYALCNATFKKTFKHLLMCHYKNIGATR

[6] = target: Neuronal acetylcholine receptor subunit alpha-4 (Homo sapiens, UniProt P43681)
Neuronal acetylcholine receptor subunit alpha-4, sequence (P43681 whole entry): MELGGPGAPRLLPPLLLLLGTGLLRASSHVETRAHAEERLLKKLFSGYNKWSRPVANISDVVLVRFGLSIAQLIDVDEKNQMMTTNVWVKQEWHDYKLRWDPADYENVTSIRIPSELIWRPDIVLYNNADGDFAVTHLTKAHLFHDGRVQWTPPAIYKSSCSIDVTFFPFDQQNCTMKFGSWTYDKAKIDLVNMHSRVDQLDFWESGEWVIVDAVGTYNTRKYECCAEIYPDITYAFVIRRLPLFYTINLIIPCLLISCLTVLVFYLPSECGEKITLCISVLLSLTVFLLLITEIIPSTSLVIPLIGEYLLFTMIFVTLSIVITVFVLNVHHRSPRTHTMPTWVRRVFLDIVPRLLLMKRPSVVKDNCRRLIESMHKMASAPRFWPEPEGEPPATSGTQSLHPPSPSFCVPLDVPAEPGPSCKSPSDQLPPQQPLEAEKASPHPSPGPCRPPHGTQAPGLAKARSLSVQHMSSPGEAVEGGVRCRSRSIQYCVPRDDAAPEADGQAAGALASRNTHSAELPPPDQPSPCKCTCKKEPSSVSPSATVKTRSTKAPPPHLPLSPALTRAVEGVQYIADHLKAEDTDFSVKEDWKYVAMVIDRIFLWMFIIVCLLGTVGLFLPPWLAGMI

[7] = target: T5, Cannabinoid receptor 1 (Homo sapiens, UniProt P21554); format: functional, cell-based
T5 sequence (P21554 whole entry): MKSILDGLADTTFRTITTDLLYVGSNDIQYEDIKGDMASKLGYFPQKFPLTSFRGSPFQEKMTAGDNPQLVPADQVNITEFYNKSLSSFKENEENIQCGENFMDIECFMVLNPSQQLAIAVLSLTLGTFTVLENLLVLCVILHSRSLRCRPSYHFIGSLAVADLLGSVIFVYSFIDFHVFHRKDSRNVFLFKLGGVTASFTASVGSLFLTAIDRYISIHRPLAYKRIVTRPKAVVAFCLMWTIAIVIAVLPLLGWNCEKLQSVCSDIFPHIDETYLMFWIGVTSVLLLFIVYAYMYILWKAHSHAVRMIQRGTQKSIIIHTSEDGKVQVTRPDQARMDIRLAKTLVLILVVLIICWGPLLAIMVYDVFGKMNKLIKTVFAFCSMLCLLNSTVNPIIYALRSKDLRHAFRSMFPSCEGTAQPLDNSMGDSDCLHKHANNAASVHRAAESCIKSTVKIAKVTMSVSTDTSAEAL

[8] = target: T5, Cannabinoid receptor 1; format: functional, cell-based; remark: listed apart in the source
[9] = target: Growth hormone secretagogue receptor type 1 (Homo sapiens, UniProt Q92847)
Growth hormone secretagogue receptor type 1, sequence (Q92847 whole entry): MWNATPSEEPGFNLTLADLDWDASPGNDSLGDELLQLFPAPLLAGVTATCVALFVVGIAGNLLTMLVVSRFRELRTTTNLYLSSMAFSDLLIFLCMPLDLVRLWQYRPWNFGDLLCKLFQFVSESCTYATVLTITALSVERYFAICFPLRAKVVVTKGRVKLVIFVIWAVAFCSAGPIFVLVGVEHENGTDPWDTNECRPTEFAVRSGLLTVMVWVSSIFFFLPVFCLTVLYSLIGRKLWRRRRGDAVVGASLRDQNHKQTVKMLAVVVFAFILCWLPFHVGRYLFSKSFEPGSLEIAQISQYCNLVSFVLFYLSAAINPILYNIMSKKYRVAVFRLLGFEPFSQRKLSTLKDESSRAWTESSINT

[10] = target: Histamine H2 receptor (Homo sapiens, UniProt P25021); format: functional, cell-based
Histamine H2 receptor, sequence (P25021 whole entry): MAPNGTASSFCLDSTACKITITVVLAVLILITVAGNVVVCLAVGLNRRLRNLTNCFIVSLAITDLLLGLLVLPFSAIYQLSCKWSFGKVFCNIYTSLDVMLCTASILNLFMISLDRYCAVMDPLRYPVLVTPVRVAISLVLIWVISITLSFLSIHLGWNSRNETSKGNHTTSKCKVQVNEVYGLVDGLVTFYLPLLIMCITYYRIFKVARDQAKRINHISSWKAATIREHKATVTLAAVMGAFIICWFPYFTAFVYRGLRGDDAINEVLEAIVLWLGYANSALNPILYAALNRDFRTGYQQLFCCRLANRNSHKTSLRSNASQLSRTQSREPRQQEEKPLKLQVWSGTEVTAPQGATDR

[11] = target: T6, 5-hydroxytryptamine receptor 3A (Homo sapiens, UniProt P46098); format: functional
T6 sequence (P46098 whole entry): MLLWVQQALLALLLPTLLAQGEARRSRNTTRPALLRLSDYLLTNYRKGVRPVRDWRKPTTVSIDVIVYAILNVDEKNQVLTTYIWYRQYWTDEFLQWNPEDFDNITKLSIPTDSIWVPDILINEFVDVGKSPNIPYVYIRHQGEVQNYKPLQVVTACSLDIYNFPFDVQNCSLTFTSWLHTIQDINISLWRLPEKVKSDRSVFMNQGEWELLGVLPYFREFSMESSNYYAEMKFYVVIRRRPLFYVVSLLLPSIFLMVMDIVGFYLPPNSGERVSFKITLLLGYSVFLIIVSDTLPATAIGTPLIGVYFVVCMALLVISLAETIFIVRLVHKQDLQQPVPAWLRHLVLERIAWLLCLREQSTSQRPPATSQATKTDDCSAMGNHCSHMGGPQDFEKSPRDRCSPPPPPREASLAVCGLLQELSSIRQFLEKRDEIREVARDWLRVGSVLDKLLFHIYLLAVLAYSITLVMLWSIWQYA

[12] = target: Delta-type opioid receptor (Homo sapiens, UniProt P41143)
Delta-type opioid receptor, sequence (P41143 whole entry): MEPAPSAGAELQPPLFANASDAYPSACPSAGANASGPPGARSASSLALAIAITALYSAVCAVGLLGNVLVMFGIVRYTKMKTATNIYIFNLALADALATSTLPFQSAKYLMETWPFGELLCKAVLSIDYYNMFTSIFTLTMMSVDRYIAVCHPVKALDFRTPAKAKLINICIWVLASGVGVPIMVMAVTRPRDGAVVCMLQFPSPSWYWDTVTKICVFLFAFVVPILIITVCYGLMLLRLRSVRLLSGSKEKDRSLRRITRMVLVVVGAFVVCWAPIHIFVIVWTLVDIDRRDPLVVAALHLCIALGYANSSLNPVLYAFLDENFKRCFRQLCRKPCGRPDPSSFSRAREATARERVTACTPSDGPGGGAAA

[13] = target: cGMP-inhibited 3',5'-cyclic phosphodiesterase 3A (Homo sapiens, UniProt Q14432); format: functional
cGMP-inhibited 3',5'-cyclic phosphodiesterase 3A, sequence (Q14432 whole entry): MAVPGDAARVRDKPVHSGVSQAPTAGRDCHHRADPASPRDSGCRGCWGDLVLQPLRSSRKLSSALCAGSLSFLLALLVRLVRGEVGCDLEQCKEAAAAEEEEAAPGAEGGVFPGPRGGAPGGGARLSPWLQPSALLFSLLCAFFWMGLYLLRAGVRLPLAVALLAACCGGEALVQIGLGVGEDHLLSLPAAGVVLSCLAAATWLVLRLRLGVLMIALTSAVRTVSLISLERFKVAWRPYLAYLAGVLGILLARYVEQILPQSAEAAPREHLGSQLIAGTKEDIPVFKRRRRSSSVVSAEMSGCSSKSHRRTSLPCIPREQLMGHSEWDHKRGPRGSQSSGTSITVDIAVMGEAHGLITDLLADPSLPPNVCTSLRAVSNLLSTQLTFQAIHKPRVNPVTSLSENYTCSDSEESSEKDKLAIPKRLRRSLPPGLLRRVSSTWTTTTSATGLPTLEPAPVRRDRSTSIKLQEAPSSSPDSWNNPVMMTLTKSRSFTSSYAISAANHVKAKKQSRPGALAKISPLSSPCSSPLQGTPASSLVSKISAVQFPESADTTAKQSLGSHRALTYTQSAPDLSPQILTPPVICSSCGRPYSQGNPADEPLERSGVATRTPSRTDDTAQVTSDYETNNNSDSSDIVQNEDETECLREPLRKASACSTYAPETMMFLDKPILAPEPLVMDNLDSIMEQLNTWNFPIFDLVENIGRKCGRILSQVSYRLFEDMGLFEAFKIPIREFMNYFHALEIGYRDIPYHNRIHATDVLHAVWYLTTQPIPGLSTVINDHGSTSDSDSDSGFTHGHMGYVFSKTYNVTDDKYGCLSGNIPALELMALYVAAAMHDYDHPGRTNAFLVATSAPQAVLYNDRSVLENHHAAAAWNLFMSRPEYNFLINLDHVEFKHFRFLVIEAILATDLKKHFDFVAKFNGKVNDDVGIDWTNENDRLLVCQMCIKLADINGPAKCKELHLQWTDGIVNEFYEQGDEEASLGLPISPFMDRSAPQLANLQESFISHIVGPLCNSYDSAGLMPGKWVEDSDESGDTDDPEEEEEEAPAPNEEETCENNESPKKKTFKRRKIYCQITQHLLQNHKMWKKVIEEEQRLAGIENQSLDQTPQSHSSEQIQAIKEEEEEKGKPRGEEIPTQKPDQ
Further: assay procedure not described here.

SMILES | AC50 [1] [µM] | AC50 [2] [µM] | AC50 [3] [µM] | AC50 [4] [µM] | AC50 [5] [µM] | AC50 [6] [µM] | AC50 [7] [µM] | AC50 [8] [µM] | AC50 [9] [µM] | AC50 [10] [µM] | AC50 [11] [µM] | AC50 [12] [µM] | AC50 [13] [µM]
CC(C)CN(C[C@@H](O)[C@H](Cc1ccccc1)NC(=O)O[C@H]1CCOC1)S(=O)(=O)c1ccc(N)cc1 | > 10 | > 10 | > 10 | > 30 | > 10 | > 30 | > 30 | 12 | > 30 | > 10 | > 30 | > 30 | > 30
CC1=C(CC(=O)O)c2cc(F)ccc2/C1=C\c1ccc([S+](C)[O-])cc1 (configuration not stated) | > 10 | > 10 | > 10 | > 30 | > 10 | > 10 | > 30 | > 30 | > 30 | > 10 | > 30 | > 30 | > 30
Cc1nnc2n1-c1ccc(Cl)cc1C(c1ccccc1)=NC2 [ALPRAZOLAM] | > 10 | > 10 | > 10 | > 30 | > 10 | > 10 | > 30 | > 30 | > 30 | > 10 | > 30 | > 30 | > 30
O=C1CN=C(c2ccccc2Cl)c2cc([N+](=O)[O-])ccc2N1 [CLONAZEPAM] | 11.9 | > 10 | > 10 | > 30 | > 10 | > 10 | > 30 | – | > 30 | > 10 | > 30 | > 30 | > 30
CCN(CC)C(C)C(=O)c1ccccc1 (configuration not stated) [DIETHYLPROPION] | > 10 | > 10 | > 10 | > 30 | > 10 | > 10 | > 30 | > 30 | > 30 | > 10 | > 30 | > 30 | > 30
OCCN(CCO)c1nc(N2CCCCC2)c2nc(N(CCO)CCO)nc(N3CCCCC3)c2n1 [DIPYRIDAMOLE] | > 30 | > 30 | – | > 30 | 2 | – | – | – | > 30 | > 30 | > 30 | > 30 | > 30
CCc1ccc(C(=O)C(C)CN2CCCCC2)cc1 (configuration not stated) [EPERISONE] | > 30 | > 30 | > 30 | > 30 | > 30 | > 30 | – | – | > 30 | > 30 | > 30 | 19 | > 30
Cc1cnc(Nc2ccc(OCCN3CCCC3)cc2)nc1Nc1cccc(S(=O)(=O)NC(C)(C)C)c1 [FEDRATINIB] | > 10 | > 10 | > 10 | > 30 | > 10 | > 10 | – | – | 9.16 | > 10 | > 30 | > 30 | > 30
CCOC(=O)C1=C(C)NC(C)=C(C(=O)OC)C1c1cccc(Cl)c1Cl (configuration not stated) [FELODIPINE] | 13 | > 10 | > 10 | > 30 | > 10 | > 10 | > 30 | > 30 | > 30 | > 10 | > 10 | > 10 | > 30
CN1C2CCCC1CC(NC(=O)c1nn(C)c3ccccc13)C2 (configuration not stated) [GRANISETRON] | > 10 | > 10 | > 10 | > 30 | > 10 | – | > 30 | > 30 | > 30 | > 10 | – | > 10 | > 10
N=C(N)NC(=O)Cc1c(Cl)cccc1Cl [GUANFACINE] | 7.64 | – | > 10 | > 30 | > 30 | > 10 | > 30 | > 30 | > 30 | > 30 | > 30 | > 30 | > 30
CC1Cc2ccccc2N1NC(=O)c1ccc(Cl)c(S(N)(=O)=O)c1 (configuration not stated) [INDAPAMIDE] | > 10 | > 10 | > 10 | > 30 | > 10 | > 10 | > 30 | > 30 | > 30 | > 10 | > 30 | > 30 | > 10
Nc1cc(N2CCCCC2)nc(N)[n+]1[O-] [MINOXIDIL] | > 10 | > 10 | > 30 | > 30 | > 10 | > 10 | – | – | > 30 | > 30 | > 30 | > 30 | > 30
COc1nc(C)nc(Cl)c1N=C1NCCN1 [MOXONIDINE] | > 30 | – | – | > 30 | > 30 | > 30 | > 30 | > 30 | > 30 | 16 | > 30 | > 30 | > 30
Cc1cccc(Nc2ccncc2S(=O)(=O)NC(=O)NC(C)C)c1 [TORSEMIDE] | > 10 | > 10 | > 10 | > 30 | > 10 | > 30 | – | – | > 30 | > 10 | > 30 | > 30 | > 30
